Data from patent US20230088704A1, “A PHARMACEUTICAL COMBINATION FOR THE TREATMENT OF A CANCER” (ABILITY PHARMACEUTICALS S.L., priority 2020, published 2023).

Columns and labels:
[1] = tested on: Human pancreatic cancer cells; assay: Immunogenic cell death (ICD) hallmarks; assay type: cell-based; settings: ABTL0812 0 to 150 μM; 24 hours
Method: Methods: Human pancreatic cancer cells were treated with increasing concentrations of ABTL0812 (ranging from 0 to 150 μM) for 24 hours, and ICD hallmarks extracellular Hmgb1 and ATP, surface Calreticulin, and caspases 3 and 8 activation, were evaluated by ELISA (Hmgb1 and ATP), flow cytometry (Calreticulin) and immunoblotting (Caspases 3 and 8). For extracellular Hmgb1 and ATP, culture media from ABTL0812 treated cells were collected and incubated with specific antibodies for further detection using colorimetric assay. For surface Calreticulin, cancer cells were collected and incubated with specific antibody for further detection using flow cytometry. For Caspase 3 and 8 activation, cancer cells were collected, protein lysate obtained, incubated with specific antibodies for further detection using immunoblotting and finally quantified using densitometry.

[2] = tested on: LLC1 cells; assay: Syngeneic lung cancer model, subcutaneous LLC1, survival; assay type: in vivo, C57BL6 mice; settings: ABTL0812 oral 120 mg/kg/day, anti-PD1 i.p. 100 ug/dose every three days
Method: C57BL6 mice were injected with 0.25×10^6 LLC1 cells in one flank to induce tumor formation. […] Tumor volume and body weight were monitored 3 times a week. End point criteria was based on tumors over 800 mm3, or clinical signs of toxicity, distress or suffering indicative of animal euthanasia.

[3] = tested on: human immortalized THP-1 and human primary macrophage cells; assay: M1/M2 polarization of immortalized and primary macrophages, RT-qPCR; assay type: cell-based
Method: Methods: THP-1 monocytes growing in suspension were differentiated to macrophages by incubation with PMA for 24 hours, inducing their attachment to the plates. Monocytes were differentiated to macrophages incubating with M-CSF1 at 20 ng/mL for 7 days. In parallel, whole blood was collected from healthy donors, and circulating monocytes were purified using immunomagnetic separation. Monocytes were selected using anti-CD14 antibodies bound to magnetic beads, which were retained in the magnetic column and further eluted for culturing in vitro. After obtaining activated macrophages (immortalized and primary), these were polarized to M1 by incubation with LPS+IFNγ for 6 hours in the presence of ABTL0812 at 100 μM. In parallel, differentiated macrophages were polarized to M2 by incubation with IL-4 and IL-13 for 24 hours in the presence of ABTL0812 (100 μM). Afterwards, polarized macrophages were lysed, total RNA extracted, retrotranscribed to cDNA and mRNA levels of IL1β, TNFα (M1 markers) and IL-10 (M2 marker) were evaluated by RT-qPCR using specific probes.

[4] = tested on: MT5 cells; assay: Syngeneic pancreatic cancer model, ABTL0812 vs anti-PD1; assay type: in vivo, C57BL6 mice
Method: Methods: MT5 cells are a highly tumorigenic murine cell line mutated in KRAS and p53 initially derived from the pancreas of triple transgenic KRAS-p53-Cre (KPC) mice, carrying pancreatic duc-tal adenocarcinoma. […] C57BL6 mice were injected with 2×10^6 MT5 cells in one flank to induce tumor formation. […] The treatment groups were Vehicle, ABTL0812 and anti-PD1. ABTL0812 was administered by the oral route at 480 mg/kg/day. Anti-PD1 antibody was administered i.p. at 200 μg/dose every three days. Tumor volume and body weight were monitored 3 times a week. At the end of the treatments, mice were euthanized, tumors collected and single cell suspension was obtained by digesting tumors using digestion media containing collagenase and lipase and further processing with trypsin and DNAse. Additionally, spleens from treated mice were collected, minced using a strainer, and single cells were obtained after treatment with trypsin and DNAse. After cell suspensions were obtained, cancer cells and immune cells infiltrated withing tumors were stained using specific antibodies against different immune cell subsets and further analyzed using flow cytometry. The combinations used were: Th1 cells=CD45+ CD4+ CCR4− CXCR3+, Th2 cells=CD45+ CD4+ CCR4+ CXCR3−, Myeloid cells=CD45+ CD11b+ Ly6C+ and NKs cells=CD45+ NK1.1+.

[5] = tested on: Ishikawa endometrial cancer cells; assay: Co-culture of ABTL0812-treated cancer cells with activated T cells, MTT; assay type: cell-based, human; settings: ABTL0812 50 μM 6 hours, then co-culture with activated T lymphocytes 24 hours
Method: Methods: human PBMCs were purified from peripheral blood of healthy donors using Ficoll and cultured in vitro. Human T cells were activated by incubation with IL-2 and CD3 and CD28 antibodies for 10 days. In parallel, Ishikawa endometrial cancer cells were treated with ABTL0812 at 50 μM for 6 hours and then co-cultured with activated T lymphocytes for 24 hours. Then, cell viability was assessed by the MTT assay. Untreated Ishikawa cells were used as controls.

[6] = tested on: U87MG cells; assay: Human glioblastoma orthotopic xenograft, ABTL0812 with temozolomide; assay type: in vivo, nude mice; settings: ABTL0812 oral 240 mg/kg 5 days/week; temozolomide oral 32 mg/Kg first 5 days
Method: Methods: Mice were intra-cerebrally injected with luciferase transfected U87MG cells. Animals were randomized 5 days after cell inoculation and treatments started. ABTL0812 was administered orally at 240 mg/kg 5 days/week; and temozolomide orally at 32 mg/Kg the first 5 days. Tumors were measured by quantification of bioluminescence intensity (BLI) of the region of interest.

[7] = tested on: Ishikawa cells; assay: Human endometrial cancer xenograft, ABTL0812 with bevacizumab; assay type: in vivo; settings: ABTL0812 oral 120 mg/kg/day; Bevacizumab ip 100 μg/dose every four days
Method: Methods: Mice were injected with 4×10^6 Ishikawa cells in one flank to induce tumor formation. […] Bevacizumab was administered ip at 100 μg/dose, every four days up to four administration. Tumor volume and body weight were monitored 3 times a week.

[8] = tested on: U87MG cells; assay: Human glioblastoma orthotopic xenograft, ABTL0812 with radiotherapy; assay type: in vivo, nude mice
Method: Methods: Mice were intra-cerebrally injected with luciferase transfected U87MG cells. Animals were randomized 5 days after cell inoculation and treatments started. ABTL0812 was administered orally at 240 mg/kg 5 days/week and radiotherapy as single dose of 4 Gy administered at day 10.
Tumors were measured by quantification of bioluminescence intensity (BLI) of the region of interest.

[9] = macrophages polarized to M1 (LPS+IFNγ 6 hours), ABTL0812 100 μM

Compound: CCCCC/C=C\C/C=C\CCCCCCC(O)C(=O)O (stereo not shown) [ABTL0812, COOH—CHOH—(CH2)6—(CH═CH—CH2)2—(CH2)3—CH3]
- Caspase 3 and 8 activation [1]: dose dependent increase
- extracellular ATP [1]: dose dependent increase
- extracellular Hmgb1 [1]: dose dependent increase
- surface Calreticulin [1]: dose dependent increase
- survival ([2]; after 9 days of treatment): 43%
- survival ([2]; after 14 days of treatment): 15%
- expression of IL-1β ([3]; differentiated macrophages without polarizing, ABTL0812 alone): significantly induces the expression of IL-1β
- IL-1β mRNA levels [3, 9]: significantly potentiates
- TNFα mRNA levels [3, 9]: significantly potentiates
- IL-10 mRNA levels ([3]; macrophages polarized to M2 (IL-4 and IL-13, 24 hours), ABTL0812 100 μM): significantly suppresses
- tumor volume ([4]; ABTL0812 oral 480 mg/kg/day, anti-PD1 i.p. 200 μg/dose every three days): significantly decreasing tumor volume compared with vehicle treatment group
- Th1/Th2 ratio in spleen ([4]; flow cytometry): increase in the Th1/Th2 ratio
- Myeloid cells within tumors ([4]; flow cytometry, CD45+ CD11b+ Ly6C+): increase of Myeloid cells within tumors
- percentage of NK cells within tumor ([4]; flow cytometry, CD45+ NK1.1+): increase in the percentage of NK cells within tumor
- cytotoxic effect of activated T cells on cancer cells [5]: potentiates the cytotoxic effect of activated T cells
- disease-free survival [6]: significantly increased the disease-free survival
- tumor volume [7]: significantly reduced tumor volume
- disease-free survival, single agent ([8]; ABTL0812 oral 240 mg/kg 5 days/week): significantly increased the disease-free survival
- disease-free survival, combination with radiotherapy ([8]; ABTL0812 oral 240 mg/kg 5 days/week + radiotherapy single dose 4 Gy at day 10): significantly more efficacious than the single treatments
